Data as given in patent publication US11980211B2, “Verbascoside and related compounds for sweetness enhancement” (International Flavors & Fragrances Inc., priority 2018, dated 2024).

Key:
[1] = Flavor profile of sucrose solution with added verbascoside or isoverbascoside; conditions: sucrose solution (4%)
Method: A sucrose solution (4%) was prepared in water. Each of verbascoside and isoverbascoside solutions of different concentrations was prepared in ethanol solution in water (50%). Verbascoside and isoverbascoside were evaluated at 1 and 200 ppm, respectively.
The flavor profile of the sucrose solution with added verbascoside and isoverbascoside is reported in the following: […]

[2] = Flavor profile of Luo Han Guo solution with added verbascoside or isoverbascoside; conditions: Luo Han Guo solution (120 ppm)
Method: A Luo Han Guo (Biovittoria Ltd., New Zealand) solution was prepared in water (120 ppm). Verbascoside and isoverbascoside solutions were prepared as above (EXAMPLE II). The flavor profile of the Luo Han Guo solution with added verbascoside and isoverbascoside is reported in the following: […]

Compound: CC1OC(OC2C(O)C(COC(=O)/C=C/c3ccc(O)c(O)c3)OC(OCCc3ccc(O)c(O)c3)C2O)C(O)C(O)C1O (stereo not shown) [Isoverbascoside, isoverbascoside]
- overall effect (summary) [1]: enhanced overall mouthfeel
- overall effect (summary) [2]: enhanced overall mouthfeel and suppressed Luo Han Guo's lingering off-taste

Compound: CC1OC(OC2C(O)C(OCCc3ccc(O)c(O)c3)OC(CO)C2OC(=O)/C=C/c2ccc(O)c(O)c2)C(O)C(O)C1O [Verbascoside, (E)-2-(3,4-dihydroxyphenyl)ethyl 3-O-(6-deoxy-α-L-mannopyranosyl)-4-[3-(3,4-dihydroxyphenyl)-2-propenoate]-β-D-Glucopyranoside]
- overall effect (summary) [1]: exhibited particular effect in sweetness enhancement
- overall effect (summary) [2]: exhibited particular effect in sweetness enhancement
